US8492347B2, “Peptide for induction of immune tolerance as treatment for systemic lupus erythematosus” (The Regents of the University of California, priority 2007, dated 2013)
Where no end group is shown, it is not given here. [ ]: non-standard residue; d: D form.

How the values were obtained:
BWF1 mice [1] = test: cytokine and Foxp3 mRNA in mesenteric lymph nodes after peptide feeding; assay type: in vivo; conditions: mesenteric lymph nodes one week after feeding
Description: Cytokine measurement in the supernatant of cultured spleen cells was done with BD OptEIA™ ELISA kits (BD Biosciences and Bio legends Inc., San Diego, Calif.) for IFNγ, IL-2, TGFβ and IL-10. Intracellular mRNA encoding IFNγ, IL-10, Foxp3 and TGFβ was analyzed by real-time RT PCR. GAPDH was used as a house-keeping gene for normalization.
Real-time PCR was analyzed according to art accepted protocols (see, e.g. Hahn et al., Ann NY Acad Sci 2005; 1051:433-41). Briefly, total RNA was isolated with TRIzol (Invitrogen Life Technologies, Carlsbad, Calif.) as per manufacturer's protocol. Reverse transcription used 50 ng of total RNA. The oligonucleotide sequences used for the primers and TaqMan probes are as follows; IFN-γ forward, 5′ TGA GAC AGA AGT TCT GGG CTTCT 3′ (SEQ ID NO: 9); reverse, 5′ CAAGAT GCA GTG TGT AGC GTTCA 3′ (SEQ ID NO: 10): probe, 6FAM TCC TGCGGCCTAGCTCTGAGA TAMRA (SEQ ID NO: 11). IL-10 forward, 5′ CAGCCGGGAAGACAATAACTG 3′ (SEQ ID NO: 12); reverse, 5′ CCGCAGCTCTAGGAGCATGT 3′ (SEQ ID NO: 13); probe 6FAM ACCCACTTCCCAGTCGGCCAGAG TAMRA. TGFβ forward, 5′ AAACGGAAGCGCATCGAA 3′ (SEQ ID NO: 14); reverse, 5′ […] 3′ (SEQ ID NO: 15), probe 6FAM […] TAMRA (SEQ ID NO: 16). Foxp3 forward, 5′[…] 3′ (SEQ ID NO: 17); reverse, 5′ […] 3′ (SEQ ID NO: 18); probe 6FAM […] TAMRA (SEQ ID NO: 19). The amplification primers were at 900 nM and the probe at 200 nM. A passive reference dye (ROX) provided an internal standard for normalization of FAM fluorescence, correcting for fluctuations due to volume changes. For relative quantitation, a standard curve was constructed for each primer and probe set, using total RNA. RNA was isolated from spleen cells of 10-13 week-old naïve or tolerized mice. Spleen cells from 2 to 3 mice in each group were pooled for each experimental group. For some experiments, CD4^+ and CD8^+ cells were isolated by positive selection using micro beads with Miltenyi AutoMACS as described above. A ribosomal RNA control primer and probe set (Applied Biosystems) were used for normalization purposes. […]

BWF1 mice [2] = test: proteinuria (Azostix) in mice fed peptide; assay type: in vivo; conditions: 250 ug fed 5 days out of each 30 from age 10 weeks; for proteinuria vs saline: at 34 weeks
Description: Anti-DNA antibodies were measured by ELISA and proteinuria by Azostix (see, e.g. Yang et al., J. I., 2003, 171: 2142-2153).
We also observed the clinical effects of feeding either D- or L-peptides at the low, medium and high doses of each. Because mRNA analysis of mesenteric lymph nodes provided evidence that high dose D-peptide would induce tolerance, we began new experiments to compare high dose (250 ug) feedings of D-peptide to the same dose of L-peptide. A control group was fed saline on the same schedule as the peptide feedings, which is daily for 5 days out of each 30 days. Each group contains 14 mice; treatment was begun at age 10 weeks. Observed effects on anti-DNA are as follows. […] Note that the saline control group is lower than the positive control anti-DNA, which is serum from BWF1 mice with heavy proteinuria and imminent death. Thus, the saline control has not reached the expected high level at this point but should do so in the next 2 months.
Observed effects on Proteinuria are as follows.

Sequence	mRNA pattern: increase in Foxp3 and TGFb with decrease in IFNg (BWF1 mice [1]; high dose 250 ug fed, listed as D-peptide)	mean level of proteinuria (zero to 4+) (BWF1 mice [2]; at 24 weeks of age)	proteinuria vs saline (BWF1 mice [2]; listed as D-peptide)	mRNA pattern: increase in Foxp3 and TGFb with decrease in IFNg (BWF1 mice [1]; high dose 250 ug fed, listed as L-peptide)	mRNA pattern: increase in Foxp3 and TGFb with decrease in IFNg (BWF1 mice [1]; middle dose 100 ug fed, listed as L-peptide)	proteinuria vs saline (BWF1 mice [2]; listed as L-peptide)
FIEWNKLRFRQGLEW ([dF][dI][dE][dW][dN][dK][dL][dR][dF][dR][dQ]G[dL][dE][dW]) [D-pCons]	All desired features	no differences in mean level of proteinuria	lower in the D-peptide group (p=0.18)			
FIEWNKLRFRQGLEW [L-pCons]				all desired features	all desired features	lower in the L-peptide group (p=0.01)
